Reference: the supplement of paper PMC9151546
Counter-ions that a name gives are not always drawn. ± gives the standard deviation of the averaged measurements.

Assays:
CHO-K1 [1] = assay: benchmark concentration for 30% increase in micronucleus frequency (BMC30); higher = less potent clastogen
Procedure: (§1)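 Benchmark concentration modelling (PROAST, Hill/exponential model families) of the 19-concentration flow-cytometric micronucleus assay in CHO-K1 cells, with and without rat liver S9. Only non-cytotoxic and adequate (relative survival >=40%) concentrations were used. BMR was a 30% increase in %MN (BMC30) or a 60% increase in %hypodiploid (BMC60) over control.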

CHO-K1 [2] = assay: benchmark concentration for 60% increase in hypodiploid frequency (BMC60); higher = less potent aneugen
Procedure: as §1

[3] = S9 metabolic activation: without S9
[4] = S9 metabolic activation: with S9

Row | Compound | benchmark concentration (CHO-K1 [1]; [3]) | benchmark concentration (CHO-K1 [2]; [3]) | benchmark concentration (CHO-K1 [2]; [4]) | benchmark concentration (CHO-K1 [1]; [4])
1 | C=CC(=O)NCNC(=O)C=C [N,N'-Methylenebisacrylamide] | 44 µM | 62 µM | – | –
2 | O=C1CN(/N=C/c2ccc([N+](=O)[O-])o2)C(=O)N1 [Nitrofurantoin] | 55 µM | 31 µM | – | –
3 | OCc1ccccc1 [Benzyl alcohol] | 43 µM | 93 µM | – | –
4 | Cc1cc(=O)[nH]c(=S)[nH]1 [6-Methyl-2-thiouracil] | < 4.5 µM | 57 µM | 83 µM | –
5 | Nc1ccc(Cl)cc1 [4-Chloroaniline] | 63 µM | 31 µM | – | –
6 | CN(C)c1ccc(N=NS(=O)(=O)O)cc1 [Fenaminosulf] | 27 µM | 41 µM | – | –
7 | NC(=O)N/N=C/c1ccc([N+](=O)[O-])o1 [Nitrofurazone] | 24 µM | 68 µM | – | –
8 | O=[N+]([O-])c1ccc(O)c([N+](=O)[O-])c1 [2,4-Dinitrophenol] | 86 µM | 49 µM | – | –
9 | N#CC(Br)Br [Dibromoacetonitrile] | 32 µM | 15 µM | – | –
10 | Cc1cccc([N+](=O)[O-])c1C [1,2-Dimethyl-3-nitrobenzene] | 41 µM | 38 µM | – | 59 µM
11 | Oc1ccc(Cl)cc1Cl [2,4-Dichlorophenol] | 17 µM | 20 µM | – | 17 µM
12 | CCC(C)(C)c1ccc(O)cc1 [4-(2-Methylbutan-2-yl)phenol] | – | 140 µM | – | 81 µM
13 | O=C1CCCCCN1 [Caprolactam] | 44 µM | 150 µM | – | –
14 | Cc1ccccc1N [2-Methylaniline] | 21 µM | 49 µM | – | –
15 | CCC(C)c1ccccc1O (stereo unspecified) [2-(Butan-2-yl)phenol] | – | 170 µM | 30 µM | 23 µM
16 | ClC(Cl)=C(c1ccc(Cl)cc1)c1ccc(Cl)cc1 [p,p'-DDE] | 29 µM | 16 µM | – | 51 µM
17 | Nc1cccc2c(N)cccc12 [1,5-Naphthalenediamine] | – | 66 µM | – | 8.6 µM
18 | ClC1(Cl)C2(Cl)C3(Cl)C4(Cl)C(Cl)(Cl)C5(Cl)C3(Cl)C1(Cl)C5(Cl)C24Cl (stereo unspecified) [Mirex] | 36 µM | 28 µM | – | –
19 | Nc1ccc2ccccc2c1 [2-Naphthylamine] | 51 µM | 47 µM | 43 µM | –
20 | C[C@]12CC[C@@H]3c4ccc(O)cc4CC[C@H]3[C@@H]1CC[C@@H]2O [17beta-Estradiol] | 8.1 µM | 9.9 µM | – | –
21 | O=C1c2c(O)cccc2Cc2cccc(O)c21 [Anthralin] | 110 µM | 16 µM | – | –
22 | Nc1ccc2c(c1)C(=O)c1ccccc1C2=O [2-Aminoanthraquinone] | – | 29 µM | 22 µM | 8.1 µM
23 | OCCCBr [3-Bromo-1-propanol] | 110 µM | 73 µM | – | –

Row | Compound | benchmark concentration (CHO-K1 [1]; [3]) | benchmark concentration (CHO-K1 [2]; [3]) | benchmark concentration (CHO-K1 [2]; [4]) | benchmark concentration (CHO-K1 [1]; [4])
24 | COP(=O)(OC)OC=C(Cl)Cl [Dichlorvos] | 66 µM | 90 µM | – | –
25 | Oc1ccccc1 [Phenol] | 100 µM | 57 µM | – | –
26 | ClC1=C(Cl)C2(Cl)C3C4OC4C(Cl)C3C1(Cl)C2(Cl)Cl (stereo unspecified) [Heptachlor epoxide] | 25 µM | 28 µM | – | 45 µM
27 | ClC1=C(Cl)C2(Cl)C3C(Cl)C=CC3C1(Cl)C2(Cl)Cl (stereo unspecified) [Heptachlor] | 64 µM | 20 µM | 19 µM | 11 µM
28 | C=CCOC(=O)c1ccccc1C(=O)OCC=C [Diallyl phthalate] | – | 65 µM | – | 61 µM
29 | Nc1nc(=O)c2nc(CNc3ccc(C(=O)N[C@@H](CCC(=O)O)C(=O)O)cc3)cnc2[nH]1 [Folic acid] | – | 110 µM | – | 57 µM
30 | O=c1n(CC2CO2)c(=O)n(CC2CO2)c(=O)n1CC1CO1 (stereo unspecified) [Triglycidyl isocyanurate] | < 4.5 µM | 25 µM | 53 µM | < 4.5 µM
31 | Oc1cc(Cl)c(Cl)cc1Cl [2,4,5-Trichlorophenol] | – | 38 µM | – | 6.5 µM
32 | CC(C)(c1ccccc1)c1ccc(O)cc1 [4-Cumylphenol] | 26 µM | 44 µM | – | –
33 | NC(=Nc1ccccc1)Nc1ccccc1 [1,3-Diphenylguanidine] | 78 µM | 67 µM | – | –
34 | c1cc2ccc3cccc4ccc(c1)c2c34 [Pyrene] | – | 110 µM | – | 40 µM
35 | COc1ccccc1N [2-Anisidine] | 46 µM | 120 µM | – | –
36 | COC(=O)NC(=S)Nc1ccccc1NC(=S)NC(=O)OC [Thiophanate-methyl] | 16.7 ± 4.2 µM | 20.5 ± 3.5 µM | – | –
37 | NC1CCCCC1 [Cyclohexylamine] | 72 µM | 43 µM | – | –
38 | Cn1cnc([N+](=O)[O-])c1Sc1ncnc2[nH]cnc12 [Azathioprine] | 83 µM | 18 µM | 170 µM | –
39 | CN(C)c1ccc(C(=O)c2ccc(N(C)C)cc2)cc1 [Michlers ketone] | – | – | 22 µM | 27 µM
40 | CC1(C)NC(=O)N(c2ccc([N+](=O)[O-])c(C(F)(F)F)c2)C1=O [Nilutamide] | 21 µM | 39 µM | – | –
41 | Nc1nc(=S)c2[nH]cnc2[nH]1 [6-Thioguanine] | < 4.5 µM | – | 74 µM | 33 µM
42 | COC(=O)c1ccccc1O [Methyl salicylate] | 15 µM | 67 µM | – | 58 µM
43 | OCCCl [2-Chloroethanol] | 60 µM | 130 µM | – | –
44 | CCCCC=O [Pentanal] | – | 140 µM | – | 60 µM
45 | CC(=O)OC1CC(C)OC(C)O1 (stereo unspecified) [Dimethoxane] | 30 µM | – | 59 µM | 86 µM
46 | CCOC(=O)c1ccccc1C(=O)OCC [Diethyl phthalate] | 100 µM | 99 µM | – | –

Row | Compound | benchmark concentration (CHO-K1 [1]; [3]) | benchmark concentration (CHO-K1 [2]; [3]) | benchmark concentration (CHO-K1 [2]; [4]) | benchmark concentration (CHO-K1 [1]; [4])
47 | Cc1ccc(C)c(O)c1 [2,5-Dimethylphenol] | 37 µM | 39 µM | – | –
48 | O=c1c(-c2ccc(O)cc2)coc2cc(O)ccc12 [Daidzein] | – | – | 47 µM | 14 µM
49 | O=C(CCl)c1ccccc1 [2-Chloroacetophenone] | – | – | 62 µM | 60 µM
50 | O=C(O)C(Cl)Cl [Dichloroacetic acid] | 94 µM | 95 µM | – | –
51 | COc1ccc(C)cc1N [2-Methoxy-5-methylaniline] | 48 µM | 89 µM | – | –
52 | CCc1ccc(CCOc2ccc(CC3SC(=O)NC3=O)cc2)nc1 (stereo unspecified) [Pioglitazone hydrochloride] | < 4.5 µM | 7.6 µM | – | –
53 | Cc1ccc2ncccc2c1 [6-Methylquinoline] | – | 120 µM | 51 µM | 22 µM
54 | c1cc2c3c(cccc3c1)CC2 [Acenaphthene] | 78 µM | – | 89 µM | 59 µM
55 | CC(C)(OO)c1ccccc1 [Cumene hydroperoxide] | 56 µM | 63 µM | – | –
56 | CCNc1ccccc1 [N-Ethylaniline] | 77 µM | 35 µM | – | –
57 | CN(Cc1cnc2nc(N)nc(N)c2n1)c1ccc(C(=O)N[C@@H](CCC(=O)O)C(=O)O)cc1 [Methotrexate] | 51 µM | 59 µM | – | –
58 | CCOP(=S)(OCC)Oc1nc(Cl)c(Cl)cc1Cl [Chlorpyrifos] | – | 69 µM | 42 µM | 29 µM
59 | Nc1ccc(Oc2ccc(N)cc2)cc1 [4,4'-Oxydianiline] | 60 µM | 31 µM | – | –
60 | C[C@]12CC[C@@H]3c4ccc(O)cc4CC[C@H]3[C@@H]1CCC2=O [Estrone] | < 4.5 µM | 5.3 µM | – | –
61 | Oc1ccc(O)cc1 [Hydroquinone] | – | – | 90 µM | 63 µM
62 | C#C[C@]1(O)CC[C@H]2[C@@H]3CCc4cc(O)ccc4[C@H]3CC[C@@]21C [17alpha-Ethinylestradiol] | – | < 4.5 µM | – | 58 µM
63 | ClCC(Cl)CCl [1,2,3-Trichloropropane] | 46 µM | 72 µM | – | –
64 | Cc1cc(O)ccc1Cl [4-Chloro-3-methylphenol] | 41 µM | 46 µM | – | 18 µM
65 | c1ccc2c(c1)-c1cccc3c1c-2cc1ccccc13 [Benzo(b)fluoranthene] | 130 µM | 93 µM | – | –
66 | ClC1=C(Cl)[C@]2(Cl)[C@@H]3[C@@H]4C[C@@H]([C@H]5O[C@@H]45)[C@@H]3[C@@]1(Cl)C2(Cl)Cl [Dieldrin] | 74 µM | 90 µM | – | –
67 | NC(=O)NO [Hydroxyurea] | 19 µM | 29 µM | – | –
68 | CCN(CC)N=O [N-Nitrosodiethylamine] | 21 µM | 31 µM | – | –
